The source of these data is PMC11540844, “Enhancing transcription–replication conflict targets ecDNA-positive cancers” (Nature, 2024).

In test [1] the test system is COLO320HSR cells. As to the kind of experiment: Cell viability / CTG proliferation (CellTiter-Glo). The format is cell-based, human. The note with it: Homo sapiens, COLO-320-HSR; Extended Data Fig. 8. The procedure:
(§1) Cell viability assay was performed using CellTiter-Glo (Promega, catalgoue no. G8461) as previously described. Briefly, cells were seeded into a 384-well plate one day before adding inhibitors. Equal volumes of vehicles or drugs diluted at indicated concentration were added into each well the next day, and the cells were incubated for three days. On the third day, after equilibrating plate and CellTiter-Glo reagent at room temperature for 30 min, reagent was added into each well and incubated for 15 min at room temperature. Luminescence was measured using a Synergy 2 microplate reader. Four biological replicates were performed for each condition. Data analysis was performed with GraphPad Prism (v.9.1.0).
(In ATP-based viability assays light output follows the ATP content of the culture.)

The subject of test [2] is COLO320DM cells. As to the kind of experiment: Cell viability / CTG proliferation (CellTiter-Glo). Type of test: cell-based, human. Conditions: for IC50: Homo sapiens, COLO 320DM. The procedure: as §1
In test [3] the test system is SNU16 cells. As to the kind of experiment: Cell viability (CellTiter-Glo). Conditions: Homo sapiens, SNU-16; Extended Data Fig. 8; read-out: IC50 SNU16. The format is cell-based, human. The procedure:
as §1, with “(v.9.1.0). […]” for “(v.9.1.0).”

For test [4], the system named is GBM39ec cells. In words: Cell viability (CellTiter-Glo). The note with it: Homo sapiens; Extended Data Fig. 8. The format is cell-based, human. As to the method: as §1
In test [5] the test system is GBM39HSR cells. As to the kind of experiment: Cell viability (CellTiter-Glo). Type of test: cell-based, human. The note with it: Homo sapiens; Extended Data Fig. 8. The procedure:
as §1

The subject of test [6] is pCHK1-S345 in HT29 cells. As to the kind of experiment: AlphaLISA SureFire Ultra p-CHK1 (Ser345) assay in HT29 cells. The format is cell-based. The note with it: Homo sapiens, HT-29, 16 h, read-out: CHK1 cellular potency AlphaLisa (IC50). As to the method:
Compound activity in cells was measured using an AlphaLISA SureFire Ultra p-CHK1 (Ser345) assay (Perkin Elmer, catalogue no. ALSU-PCHK1-A10K). HT29 cells were cultured in McCoy 5 A medium with 10% FBS and 1% penicillin-streptomycin and seeded to 96-well plates (Corning, catalogue no. 3599). Compounds were serially diluted in DMSO over a 10-point dose range with 3-fold dilution, and compound solution was added to each well containing cells. Plates were centrifuged at 1,000 rpm for 30 s. Plates were incubated at 37 °C for 16 h. Supernatant was removed by flicking the plate against a paper towel. Wells were washed once with PBS solution. To each well was added freshly prepared lysis buffer and plates were agitated on a plate shaker at 400 rpm for 30 min. The 96-well cell plates were centrifuged at 1,500 rpm for 1 min. From each well was transferred 10 µl of the lysates to a 384-well Optiplate (Perkin Elmer, catalogue no. 6007290). To each well was added Acceptor Mix (5 µl) and the plates were sealed and wrapped in foil. Plates were agitated on a plate shaker for 2 min, then incubated at room temperature for 1 h. To each well was added Donor Mix (5 µl) and the plates were sealed and wrapped in foil. Plates were agitated on a plate shaker for 2 min, then incubated at room temperature for 1 h. AlphaLisa signal was read on an EnVision multimode plate reader (Perkin Elmer). […]
Background: In Alpha technology, singlet oxygen from a donor bead excites a nearby acceptor bead.

In test [7] the test system is γH2AX in COLO320DM and COLO320HSR cells. In words: γH2AX IF combined with EdU labelling. The note with it: XL413 combined with CHIR-124. Type of test: cell-based, human. As to the method: (§2) Coverslips were coated with 100 µg ml^−^1 poly-L-lysine overnight or 10 µg ml^−^1 laminin for 1 h at 37 °C before seeding cells. Asynchronized cells were seeded onto slides and subject to different treatment. Where indicated, EdU was added to each well at 10 µg ml^−^1 30 min before collecting samples. IF and dual-IF DNA FISH staining were performed as described before. Briefly, slides were fixed with ice-cold 4% paraformaldehyde (PFA) for 15 min, followed by permeabilization with 0.5% Triton X-100 in PBS for 15 min at room temperature. Samples were blocked with 3% BSA in PBS for 1 h at room temperature before incubation with primary antibody diluted in blocking buffer at 4 °C overnight. Dilution ratio for first antibodies was as follows: γH2Ax, 1:500; pRPA2-S33, 1:1,000; pCHK1S345, 1:250; 53BP1, 1:500; cyclin A, 1:100; pRNAPII S2/S4, 1:1,000. […]
(§3) Image analysis and quantification were performed using the open-source software CellProfiler (v.4.2.1). For foci number analysis, DAPI staining, IF staining and DNA FISH channel were analysed through automatic thresholding and segmentation to cell nuclei, pRPA2S33/γH2AX foci and DNA FISH foci respectively. […] For fluorescence intensity measurement, nuclei were called based on DAPI channel through automatic thresholding and segmentation; mean fluorescence intensity was retrieved by measuring mean fluorescence intensity within each nucleus.

For test [8], the system named is RS on ecDNA in GBM39ec cells. In words: pRPA2-S33 IF combined with EGFR FISH. The format is cell-based, human. As to the method: as §2, §3
The subject of test [9] is RS on HSR in GBM39HSR cells. As to the kind of experiment: pRPA2-S33 IF combined with EGFR FISH. Type of test: cell-based, human. As to the method:
as §2, §3

Test [10] concerns pRNAPII S2/S4 in COLO320DM and COLO320HSR cells. As to the kind of experiment: Active RNA polymerase II IF. The note with it: triptolide treatment. Type of test: cell-based, human. As to the method: as §2, §3
The subject of test [11] is ssDNA on ecDNA amplicon in COLO320DM and COLO320HSR cells. In words: KAS-seq (ssDNA mapping). The format is cell-based, human. The note with it: triptolide treatment. The procedure: KAS-seq experiments were carried out as previously described[12] with modifications. Briefly, cell culture media was supplemented with 5 mM N3-kethoxal (final concentration), and cells were incubated for 10 min at 37 °C in a six-well plate. Genomic DNA was then extracted using the Monarch gDNA Purification Kit (NEB T3010S) following the standard protocol but with elution using 50 µl 25 mM K3BO3 at pH 7.0. Click reaction was carried out by mixing 87.5 µl purified DNA, 2.5 µl 20 mM DBCO-PEG4-biotin (dimethylsulfoxide (DMSO) solution, Sigma, catalogue no. 760749) and 10 µl 10× PBS in a final volume of 100 µl. The reaction was then incubated at 37 °C for 90 min. DNA was purified using AMPure XP beads by adding 50 µl beads per 100 µl reaction, washing beads on a magnetic stand twice with 80% EtOH and eluting in 130 µl 25 mM K3BO3. Purified DNA was then sheared using a Covaris E220 instrument down to around 200–400 bp size. […]
Libraries were sequenced in a paired-end format on an Illumina NextSeq instrument using NextSeq 550 High-Output Kits (2 × 36 cycles). […] Duplicate reads were removed using picard-tools (v.1.99). […]

In test [12] the test system is pRPA2-S33 foci in COLO320DM cells. In words: pRPA2-S33 IF (replication stress). Type of test: cell-based, human. The procedure:
as §2, §3

Test [13] relates to pRPA2-S33 foci in COLO320HSR cells. In words: pRPA2-S33 IF (replication stress). The format is cell-based, human. The procedure:
as §2, §3

Setting [14] is: Extended Data Fig. 8, read-out: IC50 COLO320DM.

SMILES strings stand for the structures. Where two headings read alike, the source gives them in different places.

Take `COc1cc2nc(-c3cc(F)ccc3O)nc(N[C@@H]3CNC[C@H]3C(C)(C)O)c2cc1OC` [CCT241533]: the IC50 in test [1] amounted to 4890 nM; in test [2] (setting [14]), 3740 nM. Further, the “differential inhibitory effect between ecDNA+ and ecDNA− isogenic cell lines” value in test [2] (COLO320DM vs COLO320HSR viability, Extended Data Fig. 8a) is listed as “no differential inhibitory effect”.

On to `COc1cccc(OCCCN)c1-c1cc(Nc2cnc(C#N)cn2)n[nH]1` [Ly2606368], for which the IC50 was 8.48 nM in test [3]; 78.1 nM in [1]; 34.1 nM in test [2] (setting [14]); 48.8 nM in test [4]; 66.1 nM in test [5].

`N#Cc1cnc(Nc2cc(NC[C@H]3CNCCO3)c(C(F)(F)F)cn2)cn1` [SRA737]: the IC50 in test [6] was 1500 nM; in [1], 24700 nM; in test [2] (COLO320DM cells, read-out: CTG proliferation ecDNA+ (IC50)) it was 1010 nM; in [2] (setting [14]), 1110 nM.

Regarding `O=c1[nH]c(C2CCCN2)nc2c1oc1ccc(Cl)cc12` (stereo not shown) [XL413], in [7], the “effect on DNA damage induced by CHK1i (γH2AX IF)” value was “partially blocked”.

As for `CC(C)[C@]12O[C@H]1[C@@H]1O[C@]13[C@]1(O[C@H]1C[C@H]1C4=C(CC[C@@]13C)C(=O)OC4)[C@@H]2O` [triptolide], the “RS on ecDNA (pRPA2-S33 IF and EGFR FISH)” value in [8] is recorded as “significantly decreased”. For the same molecule, in test [9], the “RS on HSR (pRPA2-S33 IF and EGFR FISH)” value was “no obvious difference”. Besides, the “transcriptional activity (active RNA polymerase II by IF)” value in test [10] is reported as “significantly decreased”. In addition, in test [11], the “ssDNA signals across the ecDNA amplicon (KAS-seq)” value is recorded as “drastic reduction”. Also, the pRPA2-S33 foci result in test [12] was “significantly decreased”; in test [13], “negligible effect”.
